Here are results for 26 molecules from patent US9597310B2, “Indanyloxydihydrobenzofuranylacetic acids” (Boehringer Ingelheim International GmbH, priority 2012, dated 2017).

In this assay the target is human GPR40 receptor (Homo sapiens (Human), UniProt O14842). The assay is described as follows: IP1 accumulation measurements using the IPOne assay system. To be noted: 1321N1 cells stably expressing human GPR40 receptor, 1 h stimulation. It is filed as cell-based. The method, then: IP1 accumulation measurements using the IPOne assay system—1321N1 cells stably expressing human GPR40 receptor (Euroscreen, Belgium) are seeded 24 h before the assay in white 384-well plates in culture medium containing 10% FCS, 1% Na-Pyruvate and 400 μg/mL G418. IP1 is assayed according to the manufacturer's description (Cisbio Bioassays, France). In brief, the assay is started by substitution of the culture medium by stimulation buffer (Hepes 10 mM, CaCl2 1 mM, MgCl2 0.5 mM, KCl 4.2 mM, NaCl 146 mM, glucose 5.5 mM and LiCl 50 mM, pH 7.4). Cells are stimulated for 1 h at 37° C., 5% CO2 by addition of the compounds that are diluted in stimulation buffer containing LiCl. Assays are stopped by adding HTRF-conjugates (IP1-d2 and Anti-IP1 cryptate Tb) and lysis buffer, provided by the manufacturer. After an incubation time of 1 h at room temperature plates are measured using an EnVision™, Perkin Elmer. The obtained fluorescence ratios at 665/615 […] are then used to calculate the pEC50 values using Assay Explorer 3.3 Software (Accelrys, Inc.) by interpolation using an IP1 reference curve and subsequent sigmoidal curve fitting allowing for a variable hill slope.
Sequence of human GPR40 receptor (O14842 whole entry): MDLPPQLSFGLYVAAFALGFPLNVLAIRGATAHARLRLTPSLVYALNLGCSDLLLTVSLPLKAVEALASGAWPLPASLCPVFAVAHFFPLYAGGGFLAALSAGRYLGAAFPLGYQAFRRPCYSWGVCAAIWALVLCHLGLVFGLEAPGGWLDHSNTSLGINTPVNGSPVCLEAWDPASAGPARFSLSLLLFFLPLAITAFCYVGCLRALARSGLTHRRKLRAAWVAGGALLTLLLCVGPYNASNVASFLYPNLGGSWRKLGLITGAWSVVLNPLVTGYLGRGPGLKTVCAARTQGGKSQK
Broadly, the EC50 is the concentration giving half of the maximal effect. A high value points to a less potent agent. `CC(C)(O)CCCc1ccc(Oc2ccc(F)c3c2CC[C@H]3Oc2ccc3c(c2)OC[C@H]3CC(=O)O)nc1` [Example 23, [(S)-6-{(R)-7-Fluoro-4-[5-(4-hydroxy-4-methyl-pentyl)-pyridin-2-yloxy]-indan-1-yloxy}-2,3-dihydro-benzofuran-3-yl]-acetic acid]: the EC50 was 84 nM. For the molecule `O=C(O)C[C@@H]1COc2cc(O[C@@H]3CCc4c(Oc5cccc(N6CCCC6=O)c5)ccc(F)c43)ccc21` [Example 57, ((S)-6-{(R)-7-Fluoro-4-[3-(2-oxopyrrolidin-1-yl)phenoxy]-indan-1-yloxy}-2,3-dihydrobenzofuran-3-yl)-acetic acid], a half-maximal response (EC50) required 4 nM.

Take `N#CCc1ccc(Oc2ccc(F)c3c2CC[C@H]3Oc2ccc3c(c2)OC[C@H]3CC(=O)O)cc1` [Example 60, ((S)-6-{(R)-4-[4-(Cyanomethyl)phenoxy]-7-fluoro-indan-1-yloxy}-2,3-dihydrobenzofuran-3-yl)-acetic acid]: the EC50 stood at 20 nM. The result for `O=C(O)C[C@@H]1COc2cc(O[C@@H]3CCc4c(Oc5ccc(CN6CCCC6)cc5)ccc(F)c43)ccc21` [Example 59, ((S)-6-{(R)-7-Fluoro-4-[4-(pyrrolidin-1-ylmethyl)phenoxy]-indan-1-yloxy}-2,3-dihydrobenzofuran-3-yl)-acetic acid] reads 216 nM; that for `CC(C)(O)CCOc1ccc(Oc2ccc(F)c3c2CC[C@H]3Oc2ccc3c(c2)OC[C@H]3CC(=O)O)nc1` [Example 17, [(S)-6-{(R)-7-Fluoro-4-[5-(3-hydroxy-3-methyl-butoxy)-pyridin-2-yloxy]-indan-1-yloxy}-2,3-dihydro-benzofuran-3-yl]-acetic acid], 23 nM; that for `CC(C)(O)CCCc1ccc(C#N)c(Oc2ccc(F)c3c2CC[C@H]3Oc2ccc3c(c2)OC[C@H]3CC(=O)O)c1` [Example 41, ((S)-6-{(R)-4-[2-Cyano-5-(4-hydroxy-4-methylpentyl)phenoxy]-7-fluoro-indan-1-yloxy}-2,3-dihydrobenzofuran-3-yl)-acetic acid], 85 nM. For `O=C(O)C[C@@H]1COc2cc(O[C@@H]3CCc4c(Oc5ccc(CC6CCOCC6)cc5)ccc(F)c43)ccc21` [Example 35, [(S)-6-((R)-7-Fluoro-4-{4-[(tetrahydro-2H-pyran-4-yl)methyl]phenoxy}-indan-1-yloxy)-2,3-dihydrobenzofuran-3-yl]-acetic acid] the value was 5 nM; for `CC(C)(O)Cn1cc(-c2cc(F)c(Oc3ccc(F)c4c3CC[C@H]4Oc3ccc4c(c3)OC[C@H]4CC(=O)O)cc2F)cn1` [Example 29, [(S)-6-((R)-4-{2,5-Difluoro-4-[1-(2-hydroxy-2-methylpropyl)-1H-pyrazol-4-yl]phenoxy}-7-fluoro-indan-1-yloxy)-2,3-dihydrobenzofuran-3-yl]-acetic acid], 12 nM. The molecule `O=C(O)C[C@@H]1COc2cc(O[C@@H]3CCc4c(Oc5ccnc(O[C@H]6CCOC6)c5)ccc(F)c43)ccc21` [Example 16, {(S)-6-[(R)-7-fluoro-4-{2-[(S)-tetrahydro-furan-3-yloxy]-pyridin-4-yloxy}-indan-1-yloxy]-2,3-dihydro-benzofuran-3-yl}-acetic acid] displayed an EC50 of 9 nM.

`N#Cc1cc(Oc2ccc(F)c3c2CC[C@H]3Oc2ccc3c(c2)OC[C@H]3CC(=O)O)ccc1O[C@@H]1CCOC1` [Example 43, ((S)-6-{(R)-4-[3-Cyano-4-((R)-tetrahydrofuran-3-yloxy)phenoxy]-7-fluoro-indan-1-yloxy}-2,3-dihydrobenzofuran-3-yl)-acetic acid]: the EC50 was determined as 18 nM. `CS(=O)(=O)CCCOc1c(F)cc(Oc2ccc(F)c3c2CC[C@H]3Oc2ccc3c(c2)OC[C@H]3CC(=O)O)cc1F` [Example 19, [(S)-6-{(R)-4-[3,5-Difluoro-4-(3-methanesulfonyl-propoxy)-phenoxy]-7-fluoro-indan-1-yloxy}-2,3-dihydro-benzofuran-3-yl]-acetic acid] displayed a concentration giving a half-maximal response (EC50) of 12 nM. Molecule `Cc1ncc(-c2ccc(Oc3ccc(F)c4c3CC[C@H]4Oc3ccc4c(c3)OC[C@H]4CC(=O)O)cc2)s1` [Example 22, [(S)-6-{(R)-7-Fluoro-4-[4-(2-methyl-thiazol-5-yl)-phenoxy]-indan-1-yloxy}-2,3-dihydro-benzofuran-3-yl]-acetic acid] displayed a concentration giving a half-maximal response (EC50) of 5 nM. The result for `O=C(O)C[C@@H]1COc2cc(O[C@@H]3CCc4c(Oc5ccc6c(c5)OCCO6)ccc(F)c43)ccc21` [Example 26, {(S)-6-[(R)-4-(2,3-Dihydrobenzo[b][1,4]dioxin-6-yloxy)-7-fluoro-indan-1-yloxy]-2,3-dihydrobenzofuran-3-yl}-acetic acid] reads 6 nM; that for `O=C(O)C[C@@H]1COc2cc(O[C@@H]3CCc4c(Oc5ccc6c(c5)NC(=O)CC6)ccc(F)c43)ccc21` [Example 24, {(S)-6-[(R)-7-Fluoro-4-(2-oxo-1,2,3,4-tetrahydroquinoline-7-yloxy)-indan-1-yloxy]-2,3-dihydrobenzofuran-3-yl}-acetic acid], 10 nM. Consider `O=C(O)C[C@@H]1COc2cc(O[C@@H]3CCc4c(Oc5ccc(C6CCOCC6)cc5)ccc(F)c43)ccc21` [Example 27, ((S)-6-{(R)-7-Fluoro-4-[4-(tetrahydro-2H-pyran-4-yl)phenoxy]-indan-1-yloxy}-2,3-dihydrobenzofuran-3-yl)-acetic acid], for which the half-maximal effective concentration (EC50) came out at 9 nM.

The molecule `N#Cc1cc(CN2CCOCC2)ccc1Oc1ccc(F)c2c1CC[C@H]2Oc1ccc2c(c1)OC[C@H]2CC(=O)O` [Example 70, ((S)-6-{(R)-4-[2-Cyano-4-(morpholin-4-ylmethyl)phenoxy]-7-fluoro-indan-1-yloxy}-2,3-dihydrobenzofuran-3-yl)-acetic acid] registered an EC50 of 44 nM. On to `CC(C)(O)CCn1ncc2cc(Oc3ccc(F)c4c3CC[C@H]4Oc3ccc4c(c3)OC[C@H]4CC(=O)O)ccc21` [Example 30, ((S)-6-{(R)-7-Fluoro-4-[1-(3-hydroxy-3-methylbutyl)-1H-indazol-5-yloxy]-indan-1-yloxy}-2,3-dihydrobenzofuran-3-yl)-acetic acid], for which the EC50 came out at 13 nM. The result for `O=C(O)C[C@@H]1COc2cc(O[C@@H]3CCc4c(Oc5ccc(N6CCCC6=O)cc5)ccc(F)c43)ccc21` [Example 58, ((S)-6-{(R)-7-Fluoro-4-[4-(2-oxopyrrolidin-1-yl)phenoxy]-indan-1-yloxy}-2,3-dihydrobenzofuran-3-yl)-acetic acid] reads 18 nM; that for `CC(C)(O)Cn1cc(-c2c(F)cc(Oc3ccc(F)c4c3CC[C@H]4Oc3ccc4c(c3)OC[C@H]4CC(=O)O)cc2F)cn1` [Example 20, {(S)-6-[(R)-4-{3,5-Difluoro-4-[1-(2-hydroxy-2-methyl-propyl)-1H-pyrazol-4-yl]-phenoxy}-7-fluoro-indan-1-yloxy]-2,3-dihydro-benzofuran-3-yl}-acetic acid], 7 nM. The result for `CC(C)(O)CCOc1ccc(C#N)c(Oc2ccc(F)c3c2CC[C@H]3Oc2ccc3c(c2)OC[C@H]3CC(=O)O)c1` [Example 42, ((S)-6-{(R)-4-[2-Cyano-5-(3-hydroxy-3-methylbutoxy)-phenoxy]-7-fluoro-indan-1-yloxy}-2,3-dihydrobenzofuran-3-yl)-acetic acid] reads 120 nM; that for `O=C(O)C[C@@H]1COc2cc(O[C@@H]3CCc4c(Oc5ccc(C(=O)N6CCOCC6)cc5)ccc(F)c43)ccc21` [Example 64, ((S)-6-{(R)-7-Fluoro-4-[4-(morpholine-4-carbonyl)phenoxy]-indan-1-yloxy}-2,3-dihydrobenzofuran-3-yl)-acetic acid], 27 nM; that for `CC(C)(O)CCOc1ccc(Oc2ccc(F)c3c2CC[C@H]3Oc2ccc3c(c2)OC[C@H]3CC(=O)O)c(C#N)c1` [Example 47, ((S)-6-{(R)-4-[2-Cyano-4-(3-hydroxy-3-methylbutoxy)phenoxy]-7-fluoro-indan-1-yloxy}-2,3-dihydrobenzofuran-3-yl)-acetic acid], 8 nM.

Consider `Cc1nc(-c2ccc(Oc3ccc(F)c4c3CC[C@H]4Oc3ccc4c(c3)OC[C@H]4CC(=O)O)cc2)cs1` [Example 32, ((S)-6-{(R)-7-Fluoro-4-[4-(2-methylthiazol-4-yl)phenoxy]-indan-1-yloxy}-2,3-dihydrobenzofuran-3-yl)-acetic acid], for which the EC50 was 13 nM. `CS(=O)(=O)CCCOc1cc(F)c(Oc2ccc(F)c3c2CC[C@H]3Oc2ccc3c(c2)OC[C@H]3CC(=O)O)cc1F` [Example 39, [(S)-6-((R)-4-{2,5-Difluoro-4-[3-(methylsulfonyl)propoxy]phenoxy}-7-fluoro-indan-1-yloxy)-2,3-dihydrobenzofuran-3-yl]-acetic acid] yielded a concentration giving a half-maximal response (EC50) of 23 nM. For `CC(C)(O)CCOc1ccc(Oc2ccc(F)c3c2CC[C@H]3Oc2ccc3c(c2)OC[C@H]3CC(=O)O)c(F)c1` [Example 53, ((S)-6-{(R)-7-Fluoro-4-[2-fluoro-4-(3-hydroxy-3-methylbutoxy)phenoxy]-indan-1-yloxy}-2,3-dihydrobenzofuran-3-yl)-acetic acid] the value was 7 nM; for `Cn1nccc1-c1ccc(Oc2ccc(F)c3c2CC[C@H]3Oc2ccc3c(c2)OC[C@H]3CC(=O)O)c(F)c1` [Example 55, ((S)-6-{(R)-7-Fluoro-4-[2-fluoro-4-(1-methyl-1H-pyrazol-5-yl)phenoxy]-indan-1-yloxy}-2,3-dihydrobenzofuran-3-yl)-acetic acid], 6 nM.
